In patent publication EP0428103A2, “Prevention of glycoprotein enveloped virus infectivity by pyridyloxazole-2-ones” (MERRELL DOW PHARMACEUTICALS INC., priority 1989, dated 1991):
Counter-ions that a name gives are not always drawn.

Columns and labels:
[1] = test system: HIV; settings: CD4+ cells, Fields, et al., Nature, Vol. 333, 19 May 1988, cited from earlier work
[2] = test system: Moloney murine leukemia virus (MoLV); experiment: in vitro XC plaque assay; format: cell-based; settings: mouse SC-1 cells; for Mean No. of Foci: control 84 foci
Method: This assay was performed according to the method of Rowe et al. (Virology, 1970, 42, 1136-39) as previously described by L. Hsu, et al. (J. Virological Methods, 1980, 1, 167-77) and T. L. Bowlin and M. R. Proffitt (J. Interferon Res., 1983, 3(1), 19-31). Mouse SC-1 cells (fibroblast) (10⁵) were seeded into each well of 6-well cluster plates (Costar #3506) in 4 ml Minimum Essential Medium (MEM) with 10% Fetal Calf Serum (FCS). Following an 18 hour incubation period (37°C), Moloney murine leukemia virus (MoLV) was applied at a predetermined titer to give optimal (i.e. countable) numbers of virus plaques. Compounds were added 2 hours prior to addition of the virus. Three days later the culture medium was removed, the SC-1 cell monolayers were exposed to UV irradiation (1800 ergs), and rat XC cells (10⁶) were seeded into each well in 4 ml MEM. Following an additional 3 day incubation (37°C), these cells were fixed with ethyl alcohol (95%) and stained with 0.3% crystal violet. Plaques were then counted under low magnification.

[3] = test system: RF strain of HIV-1; experiment: p24 antigen expression from HIV infected T-lymphocytes; format: cell-based; settings: C8166 T cell line; for p24 Antigen: culture fluid after 3 days
Method: Cells (C8166 T cell line) were pretreated with test compounds at appropriate concentrations for 3 hours prior to virus (RF strain of HIV-1) absorption. Low multiplicity of infection was used and virus absorption period was 1 hour at room temperature. the cells were washed X1 in PBS and resuspended in fresh medium containing the appropriate concentrations of test compound. Cells incubated at 37°C and after 3 days culture fluid was assayed for p24 antigen as a measure of viral replication. Because these compounds were tested as the free base, they had to be taken up in DMSO and therefore a series of DMSO virus controls were needed for comparison.

CC1CNCCN1S(=O)(=O)c1cccc2cnccc12 (stereo not shown) [1,5-isoquinolinesulphonyl-2-methylpiperazine dihydrochloride]
HIV cell surface binding [1]: does not interfere
viral infectivity ([1]; accumulation of virus particles at the cell surface): inhibition of viral infectivity

CCCc1[nH]c(=O)oc1-c1ccncc1 [Test Compound, 4-propyl-5-(4-pyridinyl)-2(3H)-oxazolone]
Mean No. of Foci ([2]; 0.10 µg/ml): 85
Mean No. of Foci ([2]; 0.25 µg/ml): 67
Mean No. of Foci ([2]; 0.5 µg/ml): 68
Mean No. of Foci ([2]; 0.75 µg/ml): 63
Mean No. of Foci ([2]; 1 µg/ml, compound added 2 hours prior to virus): 33
inhibition at 0.1 µg/mL ([2]; Murine leukemia virus, SC1, 0.10 µg/ml): 0%
inhibition at 0.25 µg/mL ([2]; Murine leukemia virus, SC1, 0.25 µg/ml): 20%
inhibition at 0.5 µg/mL ([2]; Murine leukemia virus, SC1, 0.5 µg/ml): 19%
inhibition at 0.75 µg/mL ([2]; Murine leukemia virus, SC1, 0.75 µg/ml): 25%
inhibition at 1 µg/mL ([2]; Murine leukemia virus, SC1, 1 µg/ml, compound added 2 hours prior to virus): 60.7%
p24 Antigen ([3]; 1 µg/ml, DMSO 0.01 %, vehicle control 1027 pg/ml): 613 pg/mL
p24 Antigen ([3]; 10 µg/ml, DMSO 0.1 %, vehicle control 2408 pg/ml): 244 pg/mL
inhibition at 1 µg/mL ([3]; Human immunodeficiency virus 1, 72 h, 1 µg/ml, DMSO 0.01 %, 3 days): 41%
inhibition at 10 µg/mL ([3]; Human immunodeficiency virus 1, 72 h, 10 µg/ml, DMSO 0.1 %, 3 days): 90%
